Laboratory results from patent US10206398B2, “Five-membered C-N-attached aryl sulphide and aryl sulphoxide derivatives as pesticides” (BAYER CROPSCIENCE AKTIENGESELLSCHAFT, priority 2014, dated 2019).
Like-named read-outs stand apart in the source and are kept apart here.

What was measured:
[1] = log P determination by HPLC on reversed-phase columns (C 18), analogous to OECD Guideline 117; assay type: physicochemical; conditions: for logP[a]: method [a]; for logP[b]: method [b]; for chromatographic logP: reversed-phase HPLC column (C 18)
Procedure: The log P values were determined analogously to OECD Guideline 117 (EC Directive 92/69/EEC) by HPLC (high-performance liquid chromatography) using reversed-phase columns (C 18), by the following methods: [a] The LC-MS determination in the acidic range was effected at pH 2.7 with 0.1% aqueous formic acid and acetonitrile (contains 0.1% formic acid) as eluents; linear gradient from 10% acetonitrile to 95% acetonitrile. log P[a] is also referred to as log P(HCOOH). [b] LC-MS determination in the neutral range was effected at pH 7.8 with 0.001 molar aqueous ammonium hydrogencarbonate solution and acetonitrile as eluents; linear gradient from 10% acetonitrile to 95% acetonitrile. log P[b] is also referred to as log P(neutral). Calibration is effected with solutions of a homologous series of unbranched alkan-2-ones (having 3 to 16 carbon atoms) with known log P values (log P values determined on the basis of the retention times by linear interpolation between two successive alkanones).

[2] = system: Tetranychus urticae; test: Tetranychus urticae - spray test, OP-resistant (bean leaf discs, 6 days); assay type: in vivo; conditions: after 6 days
Procedure: 5. Tetranychus urticae—Spray Test, OP-Resistant
Solvent: 78.0 parts by weight of acetone
• 1.5 parts by weight of dimethylformamide Emulsifier: alkylaryl polyglycol ether
To produce a suitable preparation of active compound, 1 part by weight of active compound is dissolved using the stated parts by weight of solvent and made up with water containing an emulsifier concentration of 1000 ppm until the desired concentration is attained. To produce further test concentrations, the preparation is diluted with emulsifier-containing water.
Discs of bean leaves (Phaseolus vulgaris) infested with all stages of the greenhouse red spider mite (Tetranychus urticae) are sprayed with an active compound preparation of the desired concentration.
After 6 days, the efficacy in % is determined. 100% means that all the spider mites have been killed; 0% means that no spider mites have been killed.

[3] = pH 2.7, HPLC, acidic range, pH 2.7, 0.1% aqueous formic acid and acetonitrile, read-out: log P(HCOOH)
[4] = pH 7.8, HPLC, neutral range, pH 7.8, 0.001 molar aqueous ammonium hydrogencarbonate and acetonitrile, read-out: log P(neutral)
[5] = pH 2.7, Table 3, HPLC, acidic range, pH 2.7, read-out: logP[a]
[6] = pH 7.8, Table 3, HPLC, neutral range, pH 7.8, read-out: logP[b]

| Structure (SMILES) | logP[a] [1] | logP[b] [1] | efficacy (spider mites killed) ([2]; 500 g/ha) [%] | other results |
| --- | --- | --- | --- | --- |
| Cc1cc(F)c(N2C(=O)C(C)N(C(=O)NCc3ccccc3)C2=O)cc1[S+]([O-])CC(F)(F)F (mixture of isomers) [compound 90] | 3.12 | 3.05 | 100 | – |
| Cc1cc(Cl)c(N2C(=O)CN(C(=O)NCC(C)C)C2=O)cc1[S+]([O-])CC(F)(F)F (racemic) [compound 65] | 2.95 | 2.88 | – | efficacy (spider mites killed) ([2]; 100 g/ha): 90% |
| Cc1cc(C)c([S+]([O-])CC(F)(F)F)cc1N1C(=O)CN(C(=O)Nc2cccc(Cl)c2)C1=O (racemic) [compound 69] | 3.37 | 3.33 | – | efficacy (spider mites killed) ([2]; 100 g/ha): 90% |
| Cc1cc(F)c(N2C(=O)C(C)N(C(=O)NCC(C)C)C2=O)cc1SCC(F)(F)F (racemic) [compound 80] | 3.99 | 3.98 | 100 | – |
| COCCNC(=O)N1CC(=O)N(c2cc([S+]([O-])CC(F)(F)F)c(C)cc2F)C1=O (racemic) [compound 82] | 1.97 | 1.94 | 100 | – |
| CCNC(=O)N1C(=O)N(c2cc([S+]([O-])CC(F)(F)F)c(C)cc2F)C(=O)C1(C)C (racemic) [compound 83] | 2.73 | 2.70 | 90 | – |
| Cc1cc(F)c(N2C(=O)N(C(=O)NCC(C)C)C(C)(C)C2=O)cc1[S+]([O-])CC(F)(F)F (racemic) [compound 86] | 3.41 | 3.39 | 100 | – |
| Cc1cc(F)c(N2C(=O)N(C(=O)NCc3ccccc3)C(C)(C)C2=O)cc1[S+]([O-])CC(F)(F)F (racemic) [compound 87] | 3.48 | 3.38 | 100 | – |
| Cc1cc(C)c([S+]([O-])CC(F)(F)F)cc1N1C(=O)CN(C(=O)Nc2cccc(CC(F)(F)F)c2)C1=O (racemic) [compound 97] | 3.57 | 3.47 | 90 | – |
| Cc1cc(C)c([S+]([O-])CC(F)(F)F)cc1N1C(=O)CN(C(=O)NCc2ccccc2)C1=O (racemic) [compound 98] | 2.85 | 2.77 | 90 | – |
| Cc1cc(Cl)c(N2C(=O)CN(C(=O)Nc3ccc(F)cc3)C2=O)cc1[S+]([O-])CC(F)(F)F (racemic) [compound 100] | 3.17 | 3.09 | 100 | – |
| CCNC(=O)N1CC(=O)N(c2cc([S+]([O-])CC(F)(F)F)c(Cl)cc2Cl)C1=O (racemic) [compound 111] | 2.56 | 2.59 | 100 | – |
| Cc1cc(Cl)c(N2C(=O)CN(C(=O)Nc3ccccn3)C2=O)cc1[S+]([O-])CC(F)(F)F (racemic) [compound 119] | 2.65 | 2.65 | – | – |
| Cc1cc(F)c(N2C(=O)CN(C(=O)NCC(F)(F)F)C2=O)cc1[S+]([O-])CC(F)(F)F (single isomer, unassigned) [Ex. No. 135] | 2.4 | 2.44 | – | – |
| Cc1cc(F)c(N2C(=O)CN(C(=O)NC3CC3)C2=S)cc1SCC(F)(F)F [Ex. No. 2, N-Cyclopropyl-3-[2-fluoro-4-methyl-5-(2,2,2-trifluoroethylsulphanyl)phenyl]-4-oxo-2-thioxoimidazolidine-1-carboxamide] | – | – | – | chromatographic logP [1, 3]: 3.66; chromatographic logP ([1]; pH 2.7, method [a], read-out: logP[a]): 3.66; chromatographic logP [1, 4]: 3.56; chromatographic logP ([1]; pH 7.8, method [b], read-out: logP[b]): 3.56 |
| Cc1cc(F)c(N2C(=O)NC(C)C2=O)cc1SCC(F)(F)F (stereo not drawn) [IIa-3, 3-[2-Fluoro-4-methyl-5-(2,2,2-trifluoroethylsulphanyl)phenyl]-5-methylimidazolidine-2,4-dione] | – | – | – | chromatographic logP [1, 3]: 2.34; chromatographic logP [1, 5]: 2.34; chromatographic logP [1, 4]: 2.31; chromatographic logP [1, 6]: 2.31 |
| Cc1cc(F)c(N2C(=O)NC(C)(C)C2=O)cc1SCC(F)(F)F [IIa-5, 3-[2-Fluoro-4-methyl-5-(2,2,2-trifluoroethylsulphanyl)phenyl]-5,5-dimethylimidazolidine-2,4-dione] | – | – | – | chromatographic logP [1, 3]: 2.61; chromatographic logP [1, 5]: 2.61; chromatographic logP [1, 4]: 2.53; chromatographic logP [1, 6]: 2.53 |
| Cc1cc(F)c(N2C(=O)CN(C(=O)NC(C)C)C2=S)cc1SCC(F)(F)F [compound 5] | 3.98 | 3.87 | – | – |
| Cc1cc(F)c(N2C(=O)CN(C(=O)Nc3cccnc3)C2=O)cc1SCC(F)(F)F [compound 17] | 2.37 | 2.75 | – | – |
| Cc1cc(C)c(N2C(=O)CN(C(=O)Nc3cccc(Cl)c3)C2=O)cc1SCC(F)(F)F [compound 56] | 4.32 | 4.19 | – | – |
| Cc1cc(F)c(N2C(=O)N(C(=O)NCC(F)(F)F)C(C)(C)C2=O)cc1SCC(F)(F)F [compound 75] | 4.02 | 3.95 | – | – |
| O=C(NCc1ccccc1)N1CC(=O)N(c2cc(SCC(F)(F)F)c(Cl)cc2Cl)C1=O [compound 107] | 3.86 | 3.90 | – | – |

Second part, led by results:

| logP[a] [1] | logP[b] [1] | Structure (SMILES) | efficacy (spider mites killed) ([2]; 500 g/ha) [%] | other results |
| --- | --- | --- | --- | --- |
| 2.99 | 2.98 | Cc1cc(F)c(N2C(=O)CN(C(=O)NCC3CCCO3)C2=O)cc1SCC(F)(F)F (racemic) [compound 67] | 100 | – |
| 2.95 | 2.91 | Cc1cc(Cl)c(N2C(=O)CN(C(=O)NCc3ccccc3)C2=O)cc1[S+]([O-])CC(F)(F)F (racemic) [compound 70] | 100 | – |
| 3.94 | 3.91 | Cc1cc(F)c(N2C(=O)C(C)N(C(=O)NCc3ccccc3)C2=O)cc1SCC(F)(F)F (racemic) [compound 81] | 100 | – |
| 3.07 | 3.05 | Cc1cc(F)c(N2C(=O)N(C(=O)NCC(F)(F)F)C(C)(C)C2=O)cc1[S+]([O-])CC(F)(F)F (racemic) [compound 85] | 100 | – |
| 3.91 | 3.86 | CCNC(=O)N1CC(=O)N(c2cc(SCC(F)(F)F)c(C)cc2F)C1=S [Ex. No. 8] | – | – |
| 4.27 | 4.18 | Cc1cc(F)c(N2C(=O)CN(C(=O)NCC(C)C)C2=S)cc1SCC(F)(F)F [compound 11] | – | – |
| 2.77 | 2.76 | Cc1cc(C)c([S+]([O-])CC(F)(F)F)cc1N1C(=O)CN(C(=O)NCC(C)C)C1=O (stereo not drawn) [compound 35] | – | – |
| 3.72 | 3.70 | CCNC(=O)N1C(=O)N(c2cc(SCC(F)(F)F)c(C)cc2F)C(=O)C1(C)C [compound 73] | – | – |
| 3.95 | 3.86 | Cc1cc(C)c(N2C(=O)CN(C(=O)Nc3ccc(F)cc3)C2=O)cc1SCC(F)(F)F [compound 93] | – | – |
| 3.47 | 3.42 | Cc1cc(C)c(N2C(=O)CN(C(=O)Nc3ccccn3)C2=O)cc1SCC(F)(F)F [compound 95] | – | – |
| 3.55 | 3.51 | Cc1cc(Cl)c(N2C(=O)CN(C(=O)Nc3ccccn3)C2=O)cc1SCC(F)(F)F [compound 96] | – | – |
| 3.53 | 3.59 | Cc1cc(F)c(N2C(=O)CN(C(=O)N(C)CC(C)C)C2=O)cc1SCC(F)(F)F [compound 124] | – | – |
